According to PubChem BioAssay AID179 (DTP/NCI, 2004):
Activity calls are given as the source filed them.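 The calls were made as follows: active = compounds giving half or more protection of infected cells from virus-caused growth loss, again on retest; inactive = the rest.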

Test system: CEM cells HIV-1 protection, formazan growth assay
Assay: NCI AIDS Antiviral Assay
Conditions: for IC50: measured here: growth of uninfected CEM cells
Summary of the method: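 Five concentrations of each compound were applied to infected and uninfected human CEM cells. Protection from HIV-1 was judged from growth measured with a soluble formazan assay.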

| Structure (SMILES) | EC50 [µM] | IC50 [µM] | outcome |
| --- | --- | --- | --- |
| O=[N+]([O-])c1ccc(C=C2C=CN(CCO)C=C2)cc1 | > 200 | > 200 |  |
| CC(=O)OCC1OC(n2c3c(cc(C#N)c2=S)CCC3)C(OC(C)=O)C(OC(C)=O)C1OC(C)=O (stereo unspecified) | > 200 | 102 |  |
| CCOC(=N)CC(=O)Nc1ccccc1 | > 40.7 | > 40.7 |  |
| CCOC(=O)C1=C(C)NC(C)=C(C(=O)OCC)C1c1cccc([N+](=O)[O-])c1 |  |  | inactive |
| Oc1cc2c3c(c1)CCCN3CCC2 | > 200 | 195 |  |
| CN(C)c1ccc(/C=C(\NC(=O)c2ccccc2)C(=O)NCC(=O)O)cc1 | > 100 | > 100 |  |
| CC[N+](C)(CC)CCC[N+]12CCC(CC1)CC2 | > 631 | > 631 |  |
| O=C(Nc1ccc2[nH]c(=S)sc2c1)Nc1ccccc1F | > 200 | 33.1 |  |
| Cc1nc2c(O)cc(Cl)c(O)c2nc1C |  |  | inactive |
| NNc1nncc2[nH]cnc12 | > 200 | > 200 |  |
| O=c1c2c(c1=O)-c1ccccc1CN2 | > 200 | > 200 |  |
| CCOC(=O)c1cnc2c(ccc3ncccc32)c1OCC | > 120 | 72.4 |  |
| C[Si](C)(C)O/C=C1\CCCCC1=O | > 200 | > 200 |  |
| Oc1ccc(SCc2cc(O)ccc2O)cc1 | > 200 | 7.08 |  |
| COc1ccc(N(C)S(=O)(=O)c2ccccc2)cc1 | > 200 | 123 |  |
| Cc1cccc(CNc2ncnc3[nH]ncc23)c1 | > 200 | > 200 |  |
| C=C1CN(S(=O)(=O)c2ccc(C)cc2)CCCN(CC(C)CC)CCCN(S(=O)(=O)c2ccc(C)cc2)C1 (stereo unspecified) | > 58.9 | 2.57 |  |
| O=C1C2C(C(=O)N1c1ccccc1)C1(c3ccccc3)CCC2(C(=O)c2ccccc2)O1 (stereo unspecified) | > 200 | 50.1 |  |
| COc1ccccc1C1SCC(=O)N1c1ccc(-n2c(-c3ccccc3)nc3ccccc3c2=O)cc1 (stereo unspecified) | > 200 | 135 |  |
| Oc1ccc(-c2nn3c(CCCCCCCCc4nnc5sc(-c6ccc(O)cc6)nn45)nnc3s2)cc1 | 145 | > 200 |  |
| CCOC(=O)c1ccc(CSc2ccc(OC)cc2)cc1 | > 33.1 | 16.2 |  |
| CCCc1cc(=O)oc2c3c(c4c(c12)OC(C)(C)C=C4)O[C@H](C)[C@@H](C)[C@@H]3OC(C)=O | 1.7 | 26.9 |  |
| CC(=O)Nc1ccc(C(=O)CCC(NC(C)=O)(C(=O)O)C(=O)O)cc1 | > 200 | > 200 |  |
| CCCCCC(=O)OC1CN2CC[C@H](O)C2C(O)[C@@H]1O (stereo partly specified) |  |  | inactive |

| Structure (SMILES) | EC50 [µM] | IC50 [µM] | outcome |
| --- | --- | --- | --- |
| O=C1C2CCC3C1C(C(=O)O)C(C(=O)O)C23 (stereo unspecified) | > 200 | > 200 |  |
| CC(C)=CCC1=C(O)C(=O)C(CC=C(C)C)=C(O)C1=O | > 83.2 | 43.7 |  |
| O=C(CCc1ccc(O)cc1)NCCc1ccc(O)cc1 | 38.9 | 166 |  |
| COc1ccccc1NC(=O)CC(=O)n1nc(-c2ccccc2)c(N=Nc2ccccc2[N+](=O)[O-])c1-c1ccccc1 | > 33.9 | > 33.9 |  |
| C=C1C(OC(=O)c2ccccc2)C2[C@@H](OC(=O)CC)[C@@H](C)C[C@]2(O)C(=O)[C@@H](C)/C=C/C(C)(C)C(=O)C(O)[C@H]1OC(=O)C(C)C (stereo partly specified) |  |  | inactive |
| NC1CSc2ccccc2NC1=O (stereo unspecified) | > 407 | > 407 |  |
| Cc1ccccc1N(CC(=O)O)S(=O)(=O)c1ccccc1 |  |  | inactive |
| O=C(NN1C(=O)c2ccccc2C1=O)c1ccccc1Nc1ccccc1C(=O)NN1C(=O)c2ccccc2C1=O | > 200 | > 200 |  |
| Cn1c(=O)ccc2cc(C(=O)c3ccccc3)ccc21 | > 191 | 39.8 |  |
| CC1(C)CC(N(C(=O)/C=C/c2ccc([N+](=O)[O-])o2)C2CCCCC2)CC(C)(C)N1 | > 32.4 | 17.4 |  |
| c1ccc(C2=C(c3ccccc3)C23SCCS3)cc1 | > 200 | 33.9 |  |
| Fc1ccccc1C=NC12CC3CC(CC(C3)C1)C2 | > 20.4 | > 20.4 |  |
| Cn1c(=N)c2cnn(-c3ccccc3)c2n(C)c1=O | > 490 | > 490 |  |
| O=S(O)CCCCSSCc1ccccc1CSSCCCCS(=O)O |  |  | inactive |
| O=C(C(=Cn1c(=O)cc[nH]c1=S)C(=O)c1ccccc1)c1ccccc1 |  |  | inactive |
| O=c1cc(-c2ccccc2)oc2cc(Oc3nnnn3-c3ccccc3)ccc12 | > 200 | 42.7 |  |
| CCCc1noc(C(F)(F)Sc2ncccn2)n1 | > 200 | > 200 |  |
| Cc1nnc(Nc2ccc(Cl)cc2)o1 | > 200 | > 200 |  |
| NC(=S)Nc1nnc(-c2ccc(-c3nnc(NC(N)=S)o3)cc2)o1 |  |  | inactive |
| O=c1[nH]c(=O)n(C2OC(CO)C(O)C2O)c2ncncc12 (stereo unspecified) | > 200 | > 200 |  |
| CCc1c(Cc2ccccc2)n(COCCO)c(=O)[nH]c1=O | 9.55 | > 200 |  |
| OCCN1CCN(C2=Nc3cccnc3Nc3cscc32)CC1 | > 200 | > 200 |  |
| CC#CCOC(=O)c1ccccc1OC(C)=O | > 200 | > 200 |  |
